According to patent publication US20250011307A1, “CRYSTALLINE FORMS OF BIARYL YAP/TAZ-TEAD PROTEIN-PROTEIN INTERACTION INHIBITORS” (Novartis AG, priority 2021, published 2025):
Counter-ions that a name gives are not always drawn.

What was measured:
Assay type in all cases: physicochemical
[1] = Solid state bulk stability stress test (HPLC degradation products, color, XRPD); set-up: key to CL color: A: No change; B: Slight discoloration; C: Medium discoloration; D: Strong discoloration
[2] = Xenon light stress test of bulk (HPLC degradation products, color, XRPD); set-up: key to CL color: A: No change; B: Slight discoloration; C: Medium discoloration; D: Strong discoloration; settings: Xenon light (1200 kLuxh, 25° C.)
Method: (§1) X-ray powder diffraction (XRPD) patterns were obtained using a Bruker Advance D8 in reflection geometry. Powders were analyzed using a zero background Si flat sample holder. The radiation used was Cu Kα (A=1.5418 Å). Patterns were measured between 2° and 40° 2theta. • Sample amount: 5-10 mg • Sample holder: zero background Si flat sample holder
as §1, with “radiation” for “radiation used”, “(λ=1.5418” for “(A=1.5418”

[3] = Excipient compatibility stress test (HPLC degradation products, color); set-up: key to CL color: A: No change; B: Slight discoloration; C: Medium discoloration; D: Strong discoloration
[4] = Solubility after equilibration at 25° C. for 24 h, with final pH and XRPD of solid residues
[5] = Hygroscopicity (loss on drying by TGA and XRPD, as is and after storage at 92% / 80% RH); settings: for XRPD / Loss on drying by TGA [%]: Compound A forms; for Loss on drying by TGA [%]: TGA temperature per cell: Modification A 110° C., amorphous 119° C., 4-hydroxybenzoate 200° C.; for Loss on drying by TGA: Compound B forms, TGA temperature per cell: free form @233° C., succinate @205° C., L-malate @200° C., L-lactate @200° C.
[6] = Compound A forms, 2 weeks 50° C./75% RH
[7] = Compound A forms, 2 weeks 80° C., 11% RH
[8] = Compound A forms, 2 weeks 80° C./75% RH
[9] = Compound A forms, 2 weeks 50° C./75% RH, 1% in mixture 1
[10] = Compound A forms, 2 weeks 50° C./75% RH, 1% in mixture 2
[11] = Compound A forms, 2 weeks 50° C./75% RH, 1% in mixture 3
[12] = Compound A forms, 2 weeks 50° C./75% RH, HGC capsule powder
[13] = Compound A forms, 2 weeks 50° C./75% RH, HPMC capsule powder
[14] = Compound A forms, 2 weeks 70° C./11% RH, 1% in mixture 1
[15] = Compound A forms, 2 weeks 70° C./11% RH, 1% in mixture 2
[16] = Compound A forms, 2 weeks 70° C./11% RH, 1% in mixture 3
[17] = Compound A forms, 2 weeks 70° C./11% RH, HGC capsule powder
[18] = Compound A forms, 2 weeks 70° C./11% RH, HPMC capsule powder
[19] = Compound A forms, 2 weeks 70° C./75% RH, 1% in mixture 1
[20] = Compound A forms, 2 weeks 70° C./75% RH, 1% in mixture 2
[21] = Compound A forms, 2 weeks 70° C./75% RH, 1% in mixture 3
[22] = Compound A forms, 2 weeks 70° C./75% RH, HPC capsule powder
[23] = Compound A forms, 2 weeks 70° C./75% RH, HPMC capsule powder

SMILES: CNC(=O)c1cnc(OCCO)c(F)c1-c1c(Cl)c(F)cc2c1C[C@](c1ccccc1)([C@@H]1CCCN1)O2 [Compound A 4-hydroxybenzoate, 4-((2S,4S)-5-Chloro-6-fluoro-2-phenyl-2-((S)-pyrrolidin-2-yl)-2,3-dihydrobenzofuran-4-yl)-5-fluoro-6-(2-hydroxyethoxy)-N-methylnicotinamide]
- Bulk (XRPD) [1, 6]: No change
- CL color [1, 6]: A
- DP[%] degradation products, Bulk (HPLC) [1, 6]: 0.2%
- Bulk (XRPD) [1, 7]: No change
- CL color [1, 7]: A
- DP[%] degradation products, Bulk (HPLC) [1, 7]: 0.2%
- Bulk (XRPD) [1, 8]: No change
- CL color [1, 8]: A
- DP[%] degradation products, Bulk (HPLC) [1, 8]: 1.5%
- Bulk amber vial (XRPD) ([2]; Compound A forms, amber vial): No change
- CL color ([2]; Compound A forms, amber vial): A
- DP[%] degradation products, Bulk amber vial (HPLC) ([2]; Compound A forms, amber vial): 0.2%
- Bulk clear vial (XPRD) ([2]; Compound A forms, clear vial): No change
- CL color ([2]; Compound A forms, clear vial): A
- DP[%] degradation products, Bulk clear vial (HPLC) ([2]; Compound A forms, clear vial): 0.2%
- CL color [3, 9]: A
- DP[%] degradation products [3, 9]: 0.3%
- CL color [3, 10]: A
- DP[%] degradation products [3, 10]: 0.2%
- CL color [3, 11]: A
- DP[%] degradation products [3, 11]: 0.2%
- CL color [3, 12]: A
- DP[%] degradation products [3, 12]: 0.3%
- CL color [3, 13]: A
- DP[%] degradation products [3, 13]: 0.6%
- CL color [3, 14]: A
- DP[%] degradation products [3, 14]: 0.4%
- CL color [3, 15]: A
- DP[%] degradation products [3, 15]: 0.1%
- CL color [3, 16]: A
- DP[%] degradation products [3, 16]: 0.2%
- CL color [3, 17]: A
- DP[%] degradation products [3, 17]: 0.3%
- CL color [3, 18]: A
- DP[%] degradation products [3, 18]: 0.6%
- CL color [3, 19]: A
- DP[%] degradation products [3, 19]: 3.6%
- CL color [3, 20]: A
- DP[%] degradation products [3, 20]: 2.3%
- CL color [3, 21]: A
- DP[%] degradation products [3, 21]: 1.5%
- CL color [3, 22]: A
- DP[%] degradation products [3, 22]: 1.3%
- CL color [3, 23]: A
- DP[%] degradation products [3, 23]: 3.1%
- final pH ([4]; Compound A forms, FaSSIF V2 pH 6.5): (6.55)
- Sol. (solubility) ([4]; Compound A forms, FaSSIF V2 pH 6.5, target concentration 20 mg/10 mL): >2, mg/mL
- final pH ([4]; Compound A forms, FeSSIF V2 pH 5.8): (5.86)
- Sol. (solubility) ([4]; Compound A forms, FeSSIF V2 pH 5.8, target concentration 20 mg/10 mL): >2, mg/mL
- final pH ([4]; Compound A forms, SGF pH 2.0): (2.36)
- Sol. (solubility) ([4]; Compound A forms, SGF pH 2.0, target concentration 20 mg/10 mL): >2, mg/mL
- final pH ([4]; Compound A forms, Water): (7.66)
- Sol. (solubility) ([4]; Compound A forms, Water, target concentration 20 mg/10 mL): >2, mg/mL
- final pH ([4]; Compound A forms, pH 1.2, 100 mM HCl): (1.18)
- Sol. (solubility) ([4]; Compound A forms, pH 1.2, 100 mM HCl, target concentration 20 mg/10 mL): >2, mg/mL
- final pH ([4]; Compound A forms, pH 3.0, 50 mM citrate buffer): (3.12)
- Sol. (solubility) ([4]; Compound A forms, pH 3.0, 50 mM citrate buffer, target concentration 20 mg/10 mL): >2, mg/mL
- final pH ([4]; Compound A forms, pH 4.7, 50 mM acetate buffer): (4.78)
- Sol. (solubility) ([4]; Compound A forms, pH 4.7, 50 mM acetate buffer, target concentration 20 mg/10 mL): >2, mg/mL
- final pH ([4]; Compound A forms, pH 6.8, 50 mM phosphate buffer): (6.75)
- final pH ([4]; Compound A forms, pH 6.8, 50 mM phosphate buffer with 50 mM Na taurocholate): (6.72)
- Sol. (solubility) ([4]; Compound A forms, pH 6.8, 50 mM phosphate buffer with 50 mM Na taurocholate, target concentration 20 mg/10 mL): >2, mg/mL
- Sol. (solubility) ([4]; Compound A forms, pH 6.8, 50 mM phosphate buffer, target concentration 20 mg/10 mL): >2, mg/mL
- XRPD ([5]; After 1 day at 80% RH): No change
- Loss on drying by TGA [%] ([5]; After 1 day at 80% RH): 0.6% (200° C.)
- XRPD ([5]; After 1 day at 92% RH): No change
- Loss on drying by TGA [%] ([5]; After 1 day at 92% RH): 0.7% (200° C.)
- Loss on drying by TGA [%] ([5]; Hygroscopicity, before RH storage): 0.5% (200° C.)

SMILES: CNC[C@]1(c2ccccc2)Oc2cc(F)c(Cl)c(-c3c(C(N)=O)ccc(OC)c3F)c2[C@@H]1C [Compound B L-malate salt, 2-((2S,3S,4S)-5-Chloro-6-fluoro-3-methyl-2-((methylamino)methyl)-2-phenyl-2,3-dihydrobenzofuran-4-yl)-3-fluoro-4-methoxybenzamide]
- DP[%] degradation products, Bulk (HPLC) ([1]; Compound B forms, 2 weeks 80° C./11% RH): 0.46%
- DP[%] degradation products, Bulk (HPLC) ([1]; Compound B forms, 2 weeks 80° C./75% RH): 2.84%
- DP[%] degradation products, Bulk amber vial (HPLC) ([2]; Compound B forms, amber vial): 0.16%
- DP[%] degradation products, Bulk clear quartz vial (HPLC) ([2]; Compound B forms, clear quartz vial): 1.53%
- DP[%] degradation products ([3]; Compound B forms, 2 weeks 50° C./75% RH, 1% in HGC powder): 1.32%
- DP[%] degradation products ([3]; Compound B forms, 2 weeks 50° C./75% RH, 1% in HPMC powder): 2.65%
- DP[%] degradation products ([3]; Compound B forms, 2 weeks 50° C./closed, 1% in HGC powder): 0.24%
- DP[%] degradation products ([3]; Compound B forms, 2 weeks 50° C./closed, 1% in HPMC powder): 0.36%
- final pH ([4]; Compound B forms, Blank FaSSIF): [6.04]
- final pH ([4]; Compound B forms, FaSSIF V2 pH 6.5): [5.95]
- final pH ([4]; Compound B forms, FeSSIF V2 pH 5.8): [5.74]
- final pH ([4]; Compound B forms, SGF pH 2.0): [2.17]
- final pH ([4]; Compound B forms, Water): [4.34]
- final pH ([4]; Compound B forms, pH 3.0, 50 mM citrate buffer): [3.04]
- final pH ([4]; Compound B forms, pH 4.7, 50 mM acetate buffer): [4.62]
- final pH ([4]; Compound B forms, pH 6.8, 50 mM phosphate buffer): [6.59]
- Loss on drying by TGA ([5]; After 1 day at 92% RH): 0.83%@200 °C
- Loss on drying by TGA ([5]; Hygroscopicity, As is): 0.81%@200 °C
